# Test results: US20070060636A1, “High enantiomeric purity dexanabinol for pharmaceutical compositions” (priority 2002, published 2007)
# Structures can show the parent of a compound that is named as a salt. Where two headings read alike, the source gives them in different places.
# How the values were obtained:
# [1] = system: intra-ocular pressure (IOP); experiment: IOP lowering after topical administration in normotensive rabbits; assay type: in vivo, New Zealand White albino rabbits; conditions: commercially available drugs, topical
# Method: New Zealand White albino rabbits weighing 2-2.5 kg were acclimatized in our animal facility for at least a week prior to IOP measurements. Drug, saline and blank-vehicle groups (n=8-12 animals per group) were included. In most experiments, 50 μl drops were applied at 09:00 and measurements were taken 1 hour, 3, 5, and 7 hours later. Baseline IOP was individualized for each animal and time point prior to drug testing. IOP was measured by a Digilab Pneumatonometer, Model 30R. ΔIOP was calculated by subtracting the baseline IOP from IOP value measured after drug application at a corresponding time point. Maximal ΔIOP and area under the ΔIOP×hours curve (AUC) were calculated and averaged for each group. Data of IOP, AUC, blood pressure and toxicity were analyzed by the Wilcoxon-Rank test.
# [2] = oral, adult; cited from earlier work
# [3] = threshold for psychomimetic effects in humans; assay type: in vivo; conditions: worked out from THC threshold and 200 fold psychoactivity
# Excerpt: Psychoactive cannabinoids have a variety of pharmacological effects that are evoked through interactions with the CB1 receptors predominantly expressed in the brain. The central nervous system effects that occur after in vivo exposure to HU-210 include euphoria, hypokinesia, hypothermia, anti-nociception, and catalepsy. Hypokinesia, hypothermia, anti-nociception, and catalepsy are the activities that form the basis of the “Tetrad assay” of CB1 mediated activity. […] The threshold for psychomimetic effects of oral THC in humans is in the range of 10-15 mg THC in an adult, i.e from about 0.16 to about 0.25 mg THC/kg body weight for adults of approximately 60 kg (“Cannabis and Cannabinoids, pharmacology, toxicology and therapeutic potential” edited by Grotenhermen and Russo, the Haworth Integrative Healing Press; Chapter 31 pp 345 and 351).
# [4] = i.v.; cited from earlier work
# [5] = cited from earlier work
# [6] = system: rats; conditions: conscious rats; cited from earlier work
# [7] = system: rat model; conditions: cited from earlier work
# [8] = system: rats; conditions: 10 μg/kg i.v., cited from earlier work
compound,measurement,setting,value
"CC(C)(C)NC[C@H](O)COc1nsnc1N1CCOCC1 [Timolol, reference compound]",AUC (ΔIOP×hours),[1],7.3±3.0 mmHg×Hours
"CCCCCc1cc(O)c2c(c1)OC(C)(C)[C@@H]1CCC(C)=C[C@@H]21 [THC, Δ^9-tetrahydrocannabinol]",threshold for psychomimetic effects,[2],10 to 15 mg
"CC(C)(C)NC[C@H](O)COc1cccc2c1CCCC2=O [levobunolol HCl, reference compound]",AUC (ΔIOP×hours),[1],13.3±1.5 mmHg×Hours
"CCCCCCC(C)(C)c1cc(O)c2c(c1)OC(C)(C)[C@@H]1CC=C(CO)C[C@@H]21 [HU-210, 1,1-dimethylheptyl-(3R,4R)-7-hydroxy-Δ^6-tetrahydrocannabinol]",maximal tolerated dose (theoretical),[3],less than 1.25 μg/kg body weight
same,lowest administered dose at which hypotensive effect is detected,[4],1 µg/kg
same,psychoactivity in animals relative to Δ^9-THC,[5]; in vivo,approximately 200 fold
same,psychoactivity compared with HU-211,[5]; series of animal tests,a thousand times more psychoactive
same,psychoactivity compared with Δ^9-THC,[5]; series of animal tests,a hundred times more psychoactive
same,bradycardia still present after drug administration,[6],≥ 8 h
same,duration of hypotensive effects,[6],2 h
same,PaCO2 after drug,[7]; from 32±0.7,45.7±1.6 mmHg
same,mean arterial blood pressure after drug,[7]; from 142±1,105±6 mm Hg
same,heart rate after drug,[7]; from 484±6,232±18 beats/min
same,change in cerebral glucose use,[7]; frontal cortex,−19%
same,cerebral glucose use after drug,"[7]; frontal cortex, from 69±1",55±3 μmol.100 g−1.min-1
same,change in cerebral glucose use,[7]; occipital cortex,−31%
same,cerebral glucose use after drug,"[7]; occipital cortex, from 60±1",41±2 μmol.100 g−1.min−1
same,reduction of mean blood pressure,[8],57±5 mm Hg
same,systemic vascular resistance index,[8],without significantly affecting
same,cardiac index after drug,[8]; from 37±1,23±1 mL/min/100 g
